Source: publication PMC8016481, “Tachykinin signaling inhibits task-specific behavioral responsiveness in honeybee workers” (eLife, 2021)
Several values for one entry are separate records, joined by “and”; a condition that tells them apart may be missing. Identical values can stand only once. Like-named read-outs stand apart in the source and are kept apart here. Ends that are not written are not given here.

How the values were obtained:
[1] = tested on: TRP2-mediated cAMP accumulation; test: Effect of PTX, CTX, YM-254890 and H89 on TRP2-mediated cAMP accumulation, HEK293 cells expressing TRPR; format: cell-based, Homo sapiens
[2] = tested on: TRP2-induced ERK1/2 phosphorylation; test: Effect of inhibitors on TRP2-induced ERK1/2 phosphorylation, HEK293 cells; format: cell-based, Homo sapiens
[3] = tested on: TRP2-induced ERK1/2 phosphorylation; test: Effect of inhibitors on TRP2-induced ERK1/2 phosphorylation, Sf21 cells; format: cell-based, Spodoptera frugiperda
[4] = tested on: TRPR
[5] = tested on: TRPR; remark: listed apart in the source
[6] = tested on: honeybee TRPR; test: Competitive binding of TRPs to TRPR in Sf21 cells (displacement of TAMRA-TRP2/TAMRA-TRP3); set-up: species or system Apis mellifera
[7] = tested on: TRPR; remark: listed apart in the source
[8] = tested on: honeybee TRPR; test: Competitive binding of TRPs to TRPR in HEK293 cells (displacement of TAMRA-TRP2/TAMRA-TRP3); set-up: species or system Apis mellifera; conditions: HEK293
[9] = target: honeybee tachykinin-related peptide receptor (FLAG-TRPR) expressed in Sf21 cells (Apis mellifera)
[10] = target: honeybee tachykinin-related peptide receptor (FLAG-TRPR) expressed in HEK293 cells (Apis mellifera)
[11] = target: honeybee tachykinin-related peptide receptor (FLAG-TRPR) expressed in HEK293 cells (Apis mellifera); remark: listed apart in the source
[12] = HEK293, 2 hr pretreatment, then TRP2 (10 nM or 1 μM) for 10 min
[13] = Sf21, 2 hr pretreatment, then TRP2 (10 nM or 1 μM) for 10 min

Chain of honeybee tachykinin-related peptide receptor (FLAG-TRPR) expressed in HEK293 cells (Apis mellifera) (A0ACM8RFV8 entry or part of it): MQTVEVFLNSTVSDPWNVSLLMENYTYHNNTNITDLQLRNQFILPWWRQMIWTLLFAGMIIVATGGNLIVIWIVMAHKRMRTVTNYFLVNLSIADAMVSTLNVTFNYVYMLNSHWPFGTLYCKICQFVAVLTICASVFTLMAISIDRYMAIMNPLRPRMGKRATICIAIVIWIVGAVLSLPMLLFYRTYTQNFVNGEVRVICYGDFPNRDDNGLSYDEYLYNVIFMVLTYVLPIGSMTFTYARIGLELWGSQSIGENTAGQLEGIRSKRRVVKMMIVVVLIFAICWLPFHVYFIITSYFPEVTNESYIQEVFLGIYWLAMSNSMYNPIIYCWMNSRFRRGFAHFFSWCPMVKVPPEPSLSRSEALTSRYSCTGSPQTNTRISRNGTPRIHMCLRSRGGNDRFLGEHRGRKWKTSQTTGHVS
Chain of honeybee tachykinin-related peptide receptor (FLAG-TRPR) expressed in Sf21 cells (Apis mellifera) (A0ACM8RFV8 entry or part of it): as above

## Cl.Cl.O=S(=O)(NCCNC/C=C/c1ccc(Br)cc1)c1cccc2cnccc12 [H89]
[1]; Suppl.3B, with TRP2, replicate 1
  cAMP accumulation: 18.636
[1]; Suppl.3B, with TRP2, replicate 2
  cAMP accumulation: 15.003
[1]; Suppl.3B, with TRP2, replicate 3
  cAMP accumulation: 13.325
[1]; Suppl.3B, with ddH2O (no TRP2), replicate 1
  cAMP accumulation: 3.551
[1]; Suppl.3B, with ddH2O (no TRP2), replicate 2
  cAMP accumulation: 2.309
[1]; Suppl.3B, with ddH2O (no TRP2), replicate 3
  cAMP accumulation: 2.639
[2]; [12]
  inhibition of TRP/TRPR-mediated ERK activation: significant inhibition
[3]; [13]
  inhibition of TRP/TRPR-mediated ERK activation: significant inhibition

## cholera toxin [CTX]
[1]
  cAMP accumulation: 18.981 and 16.723 and 16.035 and 22.197 and 20.493 and 23.072

## COc1ccc2c(c1)c(C1=C(c3c[nH]c4ccccc34)C(=O)NC1=O)cn2CCCN(C)C [Go6983]
[2]; [12]
  inhibition of TRP/TRPR-mediated ERK activation: significant inhibition
[3]; [13]
  inhibition of TRP/TRPR-mediated ERK activation: significant inhibition

## N#CC(=C(/N)Sc1ccccc1N)/C(C#N)=C(/N)Sc1ccccc1N [U0126]
[2]; [12]
  inhibition of TRP/TRPR-mediated ERK activation: significant inhibition
[3]; [13]
  inhibition of TRP/TRPR-mediated ERK activation: significant inhibition

## pertussis toxin [PTX]
[2]
  inhibition of TRP/TRPR-mediated ERK activation: had no effect
[3]
  inhibition of TRP/TRPR-mediated ERK activation: had no effect

## corazonin [CRZ, reference compound]
[4]
  cAMP accumulation: did not induce any detectable cAMP accumulation
[5]
  cAMP accumulation: did not induce any detectable cAMP accumulation

## short neuropeptide F [SNF, reference compound]
[4]
  cAMP accumulation: did not induce any detectable cAMP accumulation
[5]
  cAMP accumulation: did not induce any detectable cAMP accumulation

## APMGFQGMRa [TRP3]
[6]; Log (M) -4, replicate 1
  competitive binding: 26.3879
[6]; Log (M) -4, replicate 2
  competitive binding: 30.2236
[6]; Log (M) -4, replicate 3
  competitive binding: 35.2235
[6]; Log (M) -5, replicate 1
  competitive binding: 39.1647
[6]; Log (M) -5, replicate 2
  competitive binding: 34.4531
[6]; Log (M) -5, replicate 3
  competitive binding: 41.6285
[6]; Log (M) -6, replicate 1
  competitive binding: 40.2510
[6]; Log (M) -6, replicate 2
  competitive binding: 48.0008
[6]; Log (M) -6, replicate 3
  competitive binding: 38.3975
[6]; Log (M) -7, replicate 1
  competitive binding: 53.7851
[6]; Log (M) -7, replicate 2
  competitive binding: 58.0646
[6]; Log (M) -7, replicate 3
  competitive binding: 56.8212
[6]; Log (M) -8, replicate 1
  competitive binding: 73.9138
[6]; Log (M) -8, replicate 2
  competitive binding: 70.3389
[6]; Log (M) -8, replicate 3
  competitive binding: 76.0795
[6]; Log (M) -9, replicate 1
  competitive binding: 79.8334
[6]; Log (M) -9, replicate 2
  competitive binding: 84.1204
[6]; Log (M) -9, replicate 3
  competitive binding: 84.2025
[6]; Log (M) -10, replicate 1
  competitive binding: 93.5892
[6]; Log (M) -10, replicate 2
  competitive binding: 92.3234
[6]; Log (M) -10, replicate 3
  competitive binding: 96.9419
[6]; Log (M) -11, replicate 1
  competitive binding: 93.4444
[6]; Log (M) -11, replicate 2
  competitive binding: 100.0000
[6]; Log (M) -11, replicate 3
  competitive binding: 96.2965
[6]; Log (M) -12, replicate 1
  competitive binding: 95.2946
[6]; Log (M) -12, replicate 2
  competitive binding: 98.1256
[6]; Log (M) -12, replicate 3
  competitive binding: 92.1545
[7]
  intracellular Ca2+ levels: rose sharply
[8]; Log (M) -4, replicate 1
  competitive binding (residual TAMRA-TRP binding): 5.1560
[8]; Log (M) -4, replicate 2
  competitive binding (residual TAMRA-TRP binding): 4.9306
[8]; Log (M) -4, replicate 3
  competitive binding (residual TAMRA-TRP binding): 5.6578
[8]; Log (M) -5, replicate 1
  competitive binding (residual TAMRA-TRP binding): 9.5134
[8]; Log (M) -5, replicate 2
  competitive binding (residual TAMRA-TRP binding): 5.2301
[8]; Log (M) -5, replicate 3
  competitive binding (residual TAMRA-TRP binding): 6.7532
[8]; Log (M) -6, replicate 1
  competitive binding (residual TAMRA-TRP binding): 19.3191
[8]; Log (M) -6, replicate 2
  competitive binding (residual TAMRA-TRP binding): 12.3643
[8]; Log (M) -6, replicate 3
  competitive binding (residual TAMRA-TRP binding): 13.3614
[8]; Log (M) -7, replicate 1
  competitive binding (residual TAMRA-TRP binding): 23.7138
[8]; Log (M) -7, replicate 2
  competitive binding (residual TAMRA-TRP binding): 20.6042
[8]; Log (M) -7, replicate 3
  competitive binding (residual TAMRA-TRP binding): 26.4738
[8]; Log (M) -8, replicate 1
  competitive binding (residual TAMRA-TRP binding): 49.0125
[8]; Log (M) -8, replicate 2
  competitive binding (residual TAMRA-TRP binding): 48.4899
[8]; Log (M) -8, replicate 3
  competitive binding (residual TAMRA-TRP binding): 40.9813
[8]; Log (M) -9, replicate 1
  competitive binding (residual TAMRA-TRP binding): 72.5758
[8]; Log (M) -9, replicate 2
  competitive binding (residual TAMRA-TRP binding): 73.4731
[8]; Log (M) -9, replicate 3
  competitive binding (residual TAMRA-TRP binding): 66.5477
[8]; Log (M) -10, replicate 1
  competitive binding (residual TAMRA-TRP binding): 84.1720
[8]; Log (M) -10, replicate 2
  competitive binding (residual TAMRA-TRP binding): 90.8395
[8]; Log (M) -10, replicate 3
  competitive binding (residual TAMRA-TRP binding): 88.1290
[8]; Log (M) -11, replicate 1
  competitive binding (residual TAMRA-TRP binding): 92.0860
[8]; Log (M) -11, replicate 2
  competitive binding (residual TAMRA-TRP binding): 97.3869
[8]; Log (M) -11, replicate 3
  competitive binding (residual TAMRA-TRP binding): 95.5950
[8]; Log (M) -12, replicate 1
  competitive binding (residual TAMRA-TRP binding): 93.1313
[8]; Log (M) -12, replicate 2
  competitive binding (residual TAMRA-TRP binding): 100.0000
[8]; Log (M) -12, replicate 3
  competitive binding (residual TAMRA-TRP binding): 92.9969
[4]
  increase of cAMP levels: more than 10 fold

## pigment-dispersing hormone [PDH, reference compound]
[4]
  cAMP accumulation: did not induce any detectable cAMP accumulation
[5]
  cAMP accumulation: did not induce any detectable cAMP accumulation

## ALMGFQGVR (ends and bridges not checked) [tachykinin-related peptide 2 (TRP2), unlabeled synthetic peptide]
[9]
  EC50 of ERK1/2 phosphorylation (Western blot) in Sf21 cells expressing TRPR, TRP2 from 0.1 pM to 1 μM for 10 min: 1.68 nM
[10]
  EC50 of ERK1/2 phosphorylation (Western blot) in HEK293 cells expressing TRPR, TRP2 from 0.1 pM to 1 μM for 10 min: 68 nM
[11]
  luciferase activity (pCRE-Luc reporter of cAMP) of HEK293 cells co-transfected with pFLAG-TRPR, 1 μM TRP2, against vehicle vector: > 10 fold

## APMGFQGMR-NH2 [tachykinin-related peptide 3 (TRP3), unlabeled synthetic peptide]
[11]
  luciferase activity (pCRE-Luc reporter of cAMP) of HEK293 cells co-transfected with pFLAG-TRPR, 1 μM TRP3, against vehicle vector: > 10 fold
